Where two headings read alike, the source gives them in different places.
Tests used:
[1] = Effect on acute food intake in normal NMRI mice; assay type: in vivo; details: 30 nmol/kg subcutaneously once, normalized to vehicle group, male NMRI mice
Description: Example 4: Effect on Acute Food Intake in Normal NMRI Mice
Male NMRI mice were obtained from Janvier (Janvier Labs, France) or from Charles River (Charles River Research Models & Services Germany GmbH) at the age of 3 weeks. The animals get a microchip (Datamars, Slim Microchip T-SL) for individual identification after delivery. They were housed with 4 mice per cage under a 12/12 dark-light cycle, light off at 3 p.m. Room temperature was controlled to 21° C. +/−1° C. and humidity 60%+/−20%. Mice had ad libitum access to regular rodent chow (KLIBA Nafag 3040 or Altromin 1324, Brogaarden, Denmark) and tap water.
Latest transfer into the HM2-System of MBRose, Denmark (real-time monitoring system of food- and water intake) of the animals 5 days before study start, to allow acclimatization to experimental conditions. As the animals were uniquely identified with the microchips, each individual animal was identified by its own microchip upon entry and exit from the food channel via antennae. Randomization of the mice for each study group (n=8; age earliest 6 weeks old) was based on food intake (middle of last three days 24 h-Intervall) and bodyweight directly before start of the study. A vehicle treated (50 mM phosphate buffer pH7.4 with 3.5% Mannitol) group was included in each experiment. To have the same nutrition standard for each animal the food access was locked eight hours before dark phase. One hour before night, the animals were once treated subcutaneously with the test peptide. Food intake was reported hourly for a period of 24 h.

hGLP1R = biological target: T1, hGLP1R (Homo sapiens, UniProt P43220); experiment: hGLP1R CreLuc reporter gene assay in 0.5% and 100% plasma; assay type: cell-based; details: CreLuc reporter gene assay
T1 construct: expressed in transfected cells; host or cells: HEK-293 cells carrying a CRE-luciferase reporter gene
Outline: (§1)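 Agonist EC50s came from 8-concentration curves over four decades, fitted by non-linear variable-slope regression of CRE-driven luciferase luminescence. Cells were exposed 4 h at 37 °C, in buffer with 0.5% human plasma or in 100% plasma; GIPR was expressed in CHO cells, GLP-1R and NPY2R in HEK cells.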

hNPY2R = biological target: T2, hNPY2R (Homo sapiens, UniProt P49146); experiment: hNPY2R CreLuc reporter gene assay in 0.5% and 100% plasma; assay type: cell-based; details: CreLuc reporter gene assay
T2 construct: expressed in transfected cells; host or cells: HEK-293 cells carrying a CRE-luciferase reporter gene
T2 sequence (P49146 1-381): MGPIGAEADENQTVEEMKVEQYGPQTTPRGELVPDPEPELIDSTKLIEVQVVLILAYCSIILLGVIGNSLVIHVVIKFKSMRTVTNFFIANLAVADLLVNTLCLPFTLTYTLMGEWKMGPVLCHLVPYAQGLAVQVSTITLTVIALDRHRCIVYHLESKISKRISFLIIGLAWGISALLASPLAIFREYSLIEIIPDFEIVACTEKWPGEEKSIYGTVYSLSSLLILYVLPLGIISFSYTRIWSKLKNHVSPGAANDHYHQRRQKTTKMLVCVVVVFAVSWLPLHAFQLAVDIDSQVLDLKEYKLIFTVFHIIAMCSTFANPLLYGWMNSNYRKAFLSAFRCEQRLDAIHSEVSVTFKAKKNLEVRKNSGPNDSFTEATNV
Outline: as §1

[2] = Mouse PK after intravenous application; assay type: in vivo; details: plasma, mean residence time, intravenous 30-60 nmol/kg, male NMRI mice
Outline: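 Male NMRI mice (30–40 g) received 30-60 nmol/kg peptide by tail-vein injection, dissolved in 50 mM phosphate buffer (pH 7.4)/3.5% mannitol. Saphenous blood was sampled up to 56 hours post-dose and EDTA plasma analysed by LC-MS. PK parameters came from non-compartmental analysis.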

hGIPR = biological target: T3, hGIPR (Homo sapiens, UniProt P48546); experiment: hGIPR CreLuc reporter gene assay in 0.5% and 100% plasma; assay type: cell-based; details: CreLuc reporter gene assay
T3 construct: expressed in transfected cells; host or cells: CHO cells carrying a CRE-luciferase reporter gene
T3 sequence (P48546 22-466): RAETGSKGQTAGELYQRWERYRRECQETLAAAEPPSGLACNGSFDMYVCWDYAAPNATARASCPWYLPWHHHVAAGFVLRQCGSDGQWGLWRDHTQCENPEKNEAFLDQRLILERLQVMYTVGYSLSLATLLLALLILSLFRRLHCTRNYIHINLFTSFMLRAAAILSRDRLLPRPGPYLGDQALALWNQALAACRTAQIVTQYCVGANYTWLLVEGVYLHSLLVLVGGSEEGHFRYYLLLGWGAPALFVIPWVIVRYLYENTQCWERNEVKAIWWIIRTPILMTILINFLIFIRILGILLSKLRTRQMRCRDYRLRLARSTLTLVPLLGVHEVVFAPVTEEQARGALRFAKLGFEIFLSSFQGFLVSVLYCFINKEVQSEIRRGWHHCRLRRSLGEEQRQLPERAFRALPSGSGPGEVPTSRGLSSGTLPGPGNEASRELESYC
Outline: as §1

[3] = 0.5% human plasma, read-out: hGLP1R 0.5% hP
[4] = 0.5% human plasma, read-out: hNPY2R 0.5% hP
[5] = 100% human plasma, read-out: hNPY2R 100% hP
[6] = 0.5% human plasma, read-out: hGIPR 0.5% hP

T1 sequence (P43220 24-463): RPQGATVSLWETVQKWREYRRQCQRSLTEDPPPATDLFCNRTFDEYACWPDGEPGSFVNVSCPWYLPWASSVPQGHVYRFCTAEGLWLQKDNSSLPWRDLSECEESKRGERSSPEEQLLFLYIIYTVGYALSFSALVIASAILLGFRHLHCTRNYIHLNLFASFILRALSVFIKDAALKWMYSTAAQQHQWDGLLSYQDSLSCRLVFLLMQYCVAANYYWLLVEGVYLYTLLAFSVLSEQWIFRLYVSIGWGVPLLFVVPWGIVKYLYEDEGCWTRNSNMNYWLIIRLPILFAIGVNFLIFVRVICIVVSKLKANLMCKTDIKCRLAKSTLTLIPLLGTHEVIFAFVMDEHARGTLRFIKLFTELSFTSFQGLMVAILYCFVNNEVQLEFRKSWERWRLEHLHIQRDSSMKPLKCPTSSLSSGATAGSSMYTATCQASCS

CC[C@H](C)[C@H](NC(=O)[C@H](CC(C)C)NC(=O)[C@H](Cc1c[nH]c2ccccc12)NC(=O)[C@H](CCC(=O)O)NC(=O)[C@@H](NC(=O)[C@H](Cc1ccccc1)NC(=O)[C@H](C)NC(=O)C(C)(C)NC(=O)[C@H](CCC(N)=O)NC(=O)[C@H](C)NC(=O)[C@H](CCC(N)=O)NC(=O)[C@H](CCCCN)NC(=O)[C@H](CCC(=O)O)NC(=O)[C@H](CC(C)C)NC(=O)C(C)(C)NC(=O)[C@@H](NC(=O)[C@H](CO)NC(=O)[C@H](Cc1ccc(O)cc1)NC(=O)[C@H](CC(=O)O)NC(=O)[C@H](CO)NC(=O)[C@@H](NC(=O)[C@H](Cc1ccccc1)NC(=O)[C@@H](NC(=O)CNC(=O)[C@H](CCC(=O)O)NC(=O)C(C)(C)NC(=O)[C@@H](N)Cc1ccc(O)cc1)[C@@H](C)O)[C@@H](C)O)[C@@H](C)CC)C(C)C)C(=O)N[C@@H](CCCCNC(=O)[C@@H](N)CCCCNC(=O)CC[C@H](NC(=O)CC[C@H](NC(=O)CC[C@H](NC(=O)CC[C@H](NC(=O)CC[C@H](NC(=O)CC[C@H](NC(=O)CCCCCCCCCCCCCCCCCCC(=O)O)C(=O)O)C(=O)O)C(=O)O)C(=O)O)C(=O)O)C(=O)O)C(=O)NCC(=O)NCC(=O)N1CCC[C@H]1C(=O)N[C@@H](CO)C(=O)N[C@@H](CO)C(=O)NCC(=O)N[C@@H](C)C(=O)N[C@@H](CO)C(=O)N[C@@H](CC(C)C)C(=O)N[C@@H](CCCNC(=N)N)C(=O)N[C@@H](Cc1c[nH]cn1)C(=O)N[C@@H](Cc1ccc(O)cc1)C(=O)N[C@@H](Cc1ccc(O)cc1)C(=O)N[C@@H](CC(N)=O)C(=O)N[C@@H](Cc1c[nH]c2ccccc12)C(=O)N[C@@H](CC(C)C)C(=O)N[C@H](C(=O)N[C@@H](CCCNC(=N)N)C(=O)N[C@@H](CCC(N)=O)C(=O)N[C@@H](CCCNC(=N)N)C(=O)N[C@@H](Cc1ccc(O)cc1)C(N)=O)[C@@H](C)O [Compound 221, Y-Aib-E-G-T-F-T-S-D-Y-S-I-Aib-L-E-K-Q-A-Q-Aib-A-F-V-E-W-L-I-K(1,3)-GGPSSGASLRHYYNWLTRQRY-NH2.C20DA-gGlu-gGlu-gGlu-gGlu-gGlu-gGlu-eLys(1,2)]
Acute Food Intake 24 h 30 nmol/kg [% CTL] [1]: 51 % CTL | EC50 (hGLP1R; [3]): 0.11 nM | EC50 (hNPY2R; [4]): 12.4 nM | EC50 (hNPY2R; [5]): 49.3 nM | MRT [2]: 11 h | EC50 (hGIPR; [6]): 0.14 nM

CC[C@H](C)[C@H](NC(=O)[C@H](CC(C)C)NC(=O)[C@H](Cc1c[nH]c2ccccc12)NC(=O)[C@H](CCC(=O)O)NC(=O)[C@@H](NC(=O)[C@H](Cc1ccccc1)NC(=O)[C@H](C)NC(=O)C(C)(C)NC(=O)[C@H](CCC(N)=O)NC(=O)[C@H](C)NC(=O)[C@H](CCC(N)=O)NC(=O)[C@H](CCCCN)NC(=O)[C@H](CCC(=O)O)NC(=O)[C@H](CC(C)C)NC(=O)C(C)(C)NC(=O)[C@@H](NC(=O)[C@H](CO)NC(=O)[C@H](Cc1ccc(O)cc1)NC(=O)[C@H](CC(=O)O)NC(=O)[C@H](CO)NC(=O)[C@@H](NC(=O)[C@H](Cc1ccccc1)NC(=O)[C@@H](NC(=O)CNC(=O)[C@H](CCC(=O)O)NC(=O)C(C)(C)NC(=O)[C@@H](N)Cc1ccc(O)cc1)[C@@H](C)O)[C@@H](C)O)[C@@H](C)CC)C(C)C)C(=O)N[C@@H](CCCCNC(=O)[C@@H](N)CCCCNC(=O)CC[C@H](NC(=O)CC[C@H](NC(=O)CC[C@H](NC(=O)CC[C@H](NC(=O)CC[C@H](NC(=O)CC[C@H](NC(=O)CCCCCCCCCCCCCCCCCCC(=O)O)C(=O)O)C(=O)O)C(=O)O)C(=O)O)C(=O)O)C(=O)O)C(=O)NCC(=O)NCC(=O)N1CCC[C@H]1C(=O)N[C@@H](CO)C(=O)N[C@@H](CCC(=O)O)C(=O)NCC(=O)N[C@@H](C)C(=O)N[C@@H](CO)C(=O)N[C@@H](CC(C)C)C(=O)N[C@@H](CCCNC(=N)N)C(=O)N[C@@H](Cc1c[nH]cn1)C(=O)N[C@@H](Cc1ccc(O)cc1)C(=O)N[C@@H](Cc1ccc(O)cc1)C(=O)N[C@@H](CC(N)=O)C(=O)N[C@@H](Cc1c[nH]c2ccccc12)C(=O)N[C@@H](CC(C)C)C(=O)N[C@H](C(=O)N[C@@H](CCCNC(=N)N)C(=O)N(C)[C@@H](CCC(N)=O)C(=O)N[C@@H](CCCNC(=N)N)C(=O)N[C@@H](Cc1ccc(O)cc1)C(N)=O)[C@@H](C)O [Compound 222, Y-Aib-E-G-T-F-T-S-D-Y-S-I-Aib-L-E-K-Q-A-Q-Aib-A-F-V-E-W-L-I-K(1,3)-G-G-P-S-E-G-A-S-L-R-H-Y-Y-N-W-L-T-R-NMeQ-R-Y-NH2.C20DA-gGlu-gGlu-gGlu-gGlu-gGlu-gGlu-eLys(1,2)]
Acute Food Intake 24 h 30 nmol/kg [% CTL] [1]: 72 % CTL | EC50 (hGLP1R; [3]): 0.24 nM | EC50 (hNPY2R; [4]): 13.3 nM | MRT [2]: 11.8 h | EC50 (hGIPR; [6]): 0.19 nM

CC[C@H](C)[C@H](NC(=O)[C@H](CC(C)C)NC(=O)[C@H](Cc1c[nH]c2ccccc12)NC(=O)[C@H](CCC(=O)O)NC(=O)[C@@H](NC(=O)[C@H](Cc1ccccc1)NC(=O)[C@H](C)NC(=O)C(C)(C)NC(=O)[C@H](CCC(N)=O)NC(=O)[C@H](C)NC(=O)[C@H](CCC(N)=O)NC(=O)[C@H](CCCCN)NC(=O)[C@H](CCC(=O)O)NC(=O)[C@H](CC(C)C)NC(=O)C(C)(C)NC(=O)[C@@H](NC(=O)[C@H](CO)NC(=O)[C@H](Cc1ccc(O)cc1)NC(=O)[C@H](CC(=O)O)NC(=O)[C@H](CO)NC(=O)[C@@H](NC(=O)[C@H](Cc1ccccc1)NC(=O)[C@@H](NC(=O)CNC(=O)[C@H](CCC(=O)O)NC(=O)C(C)(C)NC(=O)[C@@H](N)Cc1ccc(O)cc1)[C@@H](C)O)[C@@H](C)O)[C@@H](C)CC)C(C)C)C(=O)N[C@@H](CCCCNC(=O)[C@@H](N)CCCCNC(=O)CC[C@H](NC(=O)CC[C@H](NC(=O)CC[C@H](NC(=O)CC[C@H](NC(=O)CC[C@H](NC(=O)CC[C@H](NC(=O)CCCCCCCCCCCCCCCCC(=O)O)C(=O)O)C(=O)O)C(=O)O)C(=O)O)C(=O)O)C(=O)O)C(=O)NCC(=O)NCC(=O)N1CCC[C@H]1C(=O)N[C@@H](CO)C(=O)N[C@@H](CO)C(=O)NCC(=O)N[C@@H](C)C(=O)N[C@@H](CO)C(=O)N[C@@H](CC(C)C)C(=O)N[C@@H](CCCNC(=N)N)C(=O)N[C@@H](Cc1c[nH]cn1)C(=O)N[C@@H](Cc1ccc(O)cc1)C(=O)N[C@@H](Cc1ccc(O)cc1)C(=O)N[C@@H](CC(N)=O)C(=O)N[C@@H](Cc1c[nH]c2ccccc12)C(=O)N[C@@H](CC(C)C)C(=O)N[C@H](C(=O)N[C@@H](CCCNC(=N)N)C(=O)N[C@@H](CCC(N)=O)C(=O)N[C@@H](CCCNC(=N)N)C(=O)N[C@@H](Cc1ccc(O)cc1)C(N)=O)[C@@H](C)O [Compound 259, Y-Aib-E-G-T-F-T-S-D-Y-S-I-Aib-L-E-K-Q-A-Q-Aib-A-F-V-E-W-L-I-K(1,3)-GGPSSGASLRHYYNWLTRQRY-NH2.C18DA-gGlu-gGlu-gGlu-gGlu-gGlu-gGlu-eLys(1,2)]
Acute Food Intake 24 h 30 nmol/kg [% CTL] [1]: 36 % CTL | EC50 (hGLP1R; [3]): 0.09 nM | EC50 (hGLP1R; 100% human plasma, read-out: hGLP1R 100% hP): 2.55 nM | EC50 (hNPY2R; [4]): 10.7 nM | EC50 (hNPY2R; [5]): 29.3 nM | MRT [2]: 8.4 h | EC50 (hGIPR; [6]): 0.22 nM | EC50 (hGIPR; 100% human plasma, read-out: hGIPR 100% hP): 0.91 nM
